Data set [1] deals with T1, Steroid 17-alpha-hydroxylase/17,20 lyase (Homo sapiens, UniProt P05093).
T1 sequence (P05093 whole entry): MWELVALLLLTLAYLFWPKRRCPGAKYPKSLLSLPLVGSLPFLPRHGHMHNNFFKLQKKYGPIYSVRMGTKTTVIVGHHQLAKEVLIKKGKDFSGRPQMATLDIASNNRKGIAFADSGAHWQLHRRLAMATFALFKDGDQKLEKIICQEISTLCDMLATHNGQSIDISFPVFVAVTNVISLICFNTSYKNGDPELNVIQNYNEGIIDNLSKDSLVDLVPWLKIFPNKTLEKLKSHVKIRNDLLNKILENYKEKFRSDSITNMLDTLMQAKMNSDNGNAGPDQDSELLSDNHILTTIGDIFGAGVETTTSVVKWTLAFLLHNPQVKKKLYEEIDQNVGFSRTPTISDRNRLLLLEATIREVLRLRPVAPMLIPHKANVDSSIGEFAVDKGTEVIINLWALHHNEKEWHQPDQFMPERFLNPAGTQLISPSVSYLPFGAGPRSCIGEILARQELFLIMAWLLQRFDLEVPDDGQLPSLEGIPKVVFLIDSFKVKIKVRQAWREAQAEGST
Briefly: Inhibition of human CYP17A1. It is filed as ADME.

Data set [2] in a line: Metabolic stability in human liver microsomes assessed as parent compound remaining relative to control. Also: time not given here. It is filed as ADME, Microsome. (In general: Liver microsomes are vesicles of endoplasmic reticulum, rich in cytochrome P450 enzymes.)
The nature of data set [3]: Metabolic stability in rat liver microsomes assessed as parent compound remaining. Also: time not given here. It is filed as ADME, Microsome.
Data set [4] can be described thus: Metabolic stability in mouse liver microsomes assessed as parent compound remaining. Also: time not given here. In kind it is ADME, Microsome.
The target of data set [5] is T2, Cytochrome P450 1A2 (Homo sapiens, UniProt P05177).
T2 sequence (P05177 whole entry): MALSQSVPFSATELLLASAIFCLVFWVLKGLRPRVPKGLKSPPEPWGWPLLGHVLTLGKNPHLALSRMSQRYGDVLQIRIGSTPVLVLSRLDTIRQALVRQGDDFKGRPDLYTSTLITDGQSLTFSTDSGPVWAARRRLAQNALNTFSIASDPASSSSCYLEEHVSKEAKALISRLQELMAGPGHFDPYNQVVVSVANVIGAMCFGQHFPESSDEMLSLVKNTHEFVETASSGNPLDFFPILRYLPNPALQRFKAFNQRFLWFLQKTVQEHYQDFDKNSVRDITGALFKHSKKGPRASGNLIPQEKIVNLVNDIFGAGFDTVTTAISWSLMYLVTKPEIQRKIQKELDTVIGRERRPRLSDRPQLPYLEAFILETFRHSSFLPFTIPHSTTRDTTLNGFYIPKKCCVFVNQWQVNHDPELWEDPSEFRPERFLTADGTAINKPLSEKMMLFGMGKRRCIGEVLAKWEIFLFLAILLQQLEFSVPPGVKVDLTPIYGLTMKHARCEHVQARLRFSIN
Description: Inhibition of CYP1A2 (unknown origin). It is filed as ADME.

Data set [6] concerns the target T1, Steroid 17-alpha-hydroxylase/17,20 lyase. Briefly: Selectivity ratio for inhibition of human CYP17A1 hydroxylase activity to inhibition of human CYP17A1 lyase activity. In kind it is ADME.

As usually defined, the IC50 is the concentration at which inhibition is half-maximal. High values mean weaker potency, low ones greater potency.

On to `Fc1ccc(-n2ncc3c(-c4cncnc4N4CC(F)(F)C4)ccnc32)cc1`, for which the figures for the IC50 in data set [1] and in data set [5] were 4 nM and > 40000 nM, respectively. The Stability amounted to 85% in data set [2], 35% in data set [3] and 62% in data set [4]. For the same compound, the Ratio in data set [6] was found to be 3.

On to `Nc1ncncc1-c1ccnc2c1cnn2-c1ccc(F)cc1C(F)(F)F`, for which the half-maximal inhibitory concentration (IC50) in data set [1] was 14 nM; in data set [5], > 40000 nM. Also, the Stability is given as 100% in data set [2], 94% in data set [3] and 68% in data set [4]. The Ratio in data set [6] came out at 3.

`Fc1ccc(-n2ncc3c(-c4cncnc4NCC(F)(F)F)ccnc32)cc1`: the values for the concentration for half-maximal inhibition (IC50) in data set [1] and in data set [5] were 8 nM and 4710 nM, respectively. Besides, the Stability in data set [2] was 42%; in data set [3], 40%; in data set [4] it was 3%. Besides, in data set [6], the Ratio worked out at 3.

`Fc1ccc(-n2ncc3c(-c4cncnc4NC4CC4)ccnc32)cc1`: the IC50 in data set [1] is 46 nM; in data set [5], 10900 nM. Also, the Stability in data set [2] was found to be 67%; in data set [3], 27%; in data set [4] it was 7%. Moreover, the Ratio in data set [6] worked out at 6.

On to `Nc1ncncc1-c1ccnc2c1cnn2-c1ccc(F)cc1F`, for which the IC50 in data set [1] is 11 nM; in data set [5], > 40000 nM. Moreover, the values for the Stability in data set [2], in data set [3] and in data set [4] were 98%, 100% and 92%, respectively. Also, in data set [6], the Ratio amounted to 6.

Regarding `Fc1ccc(-n2ncc3c(-c4cncnc4C4CC4)ccnc32)cc1`, the IC50 stood at 23 nM in data set [1] and 658 nM in data set [5]. Further, the values for the Stability in data set [2], in data set [3] and in data set [4] were 85%, 78% and 55%, respectively. The Ratio in data set [6] was determined as 13.

The record behind these values is ChEMBL document CHEMBL5223109, “The discovery of BMS-737 as a potent, CYP17 lyase-selective inhibitor for the treatment of castration-resistant prostate cancer” (Bioorg Med Chem Lett, 2022).
